Measured values: patent US20250171821A1, “HIF-1 ACTIVATORS AND USES THEREOF” (Ramot at Tel-Aviv University Ltd., priority 2022, published 2025)
Read-outs that look alike come from different tables or passages of the source.

How the values were obtained:
fibroblasts = test: Cell-Titer assay of cellular ATP levels, fibroblasts; format: cell-based; conditions: for IC50: Homo sapiens, Fibroblast
Text: Human fibroblasts were isolated from fragments of healthy masticatory oral mucosa (from the posterior hard palate) collected during periodontal surgeries. Informed consent was obtained from all patients. Shallow tissue samples (without submucosa) with a diameter of approximately 2 mm were excised using a #15C scalpel blade. Exclusion criteria for potential tissue donors were smoking, any systemic disease, pregnancy or lactation, or a history of periodontal disease. Cells were separated into connective tissue and epithelium using dispase II (Sigma-Aldrich, Rehovot, Israel) at 2 mg/mL for two hours at 37° C.
(§1) The live/dead viability assay (cat #04511-1KT-F Merck, Germany) was used according to the manufacturer's protocol. Briefly, cells were incubated in a medium supplemented with the indicated concentrations of ML228 for 48 hours. Fluorescein diacetate (6.6 μg/mL) and propidium iodide (5 μg/mL) (Merck, NJ, USA) were prepared in DMEM and added to the cells. Confocal images were captured after addition of the dyes with ZEISS LSM 900, Laser Scanning Microscope. Fluorescence readouts were obtained with ex/em of 490/515 nm and 535/617 nm for green and red, respectively. Cellular ATP levels were quantified using the cell-titer assay (Promega, WI, USA cat #G7570).

osteoblasts = test: Cell-Titer assay of cellular ATP levels, osteoblasts; format: cell-based; conditions: 48 hours
Method: MG-63 human osteosarcoma cell lines were obtained from the American Type Culture Collection (ATCC, Manassas, VA, USA). Cells were cultured in α-MEM supplemented with 10% FCS, 100 U/ml penicillin, and […] streptomycin at 37° C. in a humidified atmosphere incubator containing 5% CO2. Before treatment with ML228, 5,000 and 50,000 cells/well were seeded in a 96 or 24 well-plate, respectively.
as §1

NIH/3T3 cell line = test: Collagen type 1 immunofluorescence in NIH/3T3 cells (Incucyte); format: cell-based, mouse
Method: Embryonic mouse fibroblast NIH/3T3 cell line (ATCC) were seeded at a concentration of 50*10^3 cells/well on 96 well glass bottom plate (P96-1.5H-N, Cellvis) for the immunofluorescence experiment and on cell culture microplate, 96 well, PS, F-Bottom (655090, greiner) for the viability experiment. The cells were cultured with Dulbecco's modified Eagle's medium (DMEM) supplemented with 10% fetal calf serum, 1% Penicillin-Streptomycin solution and 1% L-glutamine (All purchased from Rhenium). At 24 hours post seeding, cells were treated for another 48 hours by replacing them with the cell medium supplemented with a serial dilution (5-0.02 μM, factor dilution of 2) of the ML228, Daprodustat, Enarodustat, Molidustat, Vadadustat or Roxadustat molecules dissolved in DMSO. The final DMSO concentration in the cell medium was 0.01%. Cells were maintained in an incubator at 37° C. in a humidified atmosphere containing 5% CO2.
At 48 hours post treatment with either Daprodustat, Enarodustat, Molidustat, Vadadustat or Roxadustat, cells were fixed for 10 minutes together with their media with 8% paraformaldehyde (PFA, Electron Microscopy Sciences) dissolved in phosphate-buffered saline (PBS, Invitrogen) to a final concentration of 4% PFA, without any wash to avoid cells detachment from the glass. Cells were briefly washed four times with ice-cold PBS to remove the PFA and kept overnight at 4° C. The following day, a blocking solution which contains 1.5% Bovine Serum Albumin (Sigma Aldrich) dissolved in PBS was applied for 30 minutes, followed by an overnight incubation at 4° C. with recombinant rabbit anti-mouse Collagen-I 1° antibody (primary Ab) [EPR24331-53] (ab270993, Abcam), dissolved in the blocking solution (1:1000 dilution). The following day, cells were washed for 3 times with PBS (5 minutes each), followed by immunostaining with goat anti-rabbit IgG H&L (Alexa Fluor® 488) 2° antibody (secondary Ab) (ab150077, Abcam) dissolved in blocking solution (1:1000 dilution). Cells were washed again for 3 times with PBS (5 minutes each), stained for 30 minutes with DRAQ5™ (ab108410, Abcam) for nuclei staining dissolved in PBS (1:1000 dilution), and washed once again with PBS. For the ML228 experiment, cells were washed with PBS before applying 4% PFA dissolved in PBS. Then, fixed cells were additionally permeabilized with 0.2% Triton™ X-100 (Merck) dissolved in PBS, additionally stained with Phalloidin-Atto 594 (51927, Sigma Aldrich) for F-Actin staining for 1 hour (1:250 dilution) together with the aforementioned secondary antibody, followed by 10 minutes incubation with DAPI staining solution (ab228549, Abcam) for nuclei staining dissolved in PBS (1:1000 dilution).
Images were taken using a ZEISS LSM 900 in wide-field or in the LSM confocal detection mode (ML228 experiment), using Zen 3.1. Fluorescence readouts were obtained at excitation/emission: 353/465 nm (DAPI), 493/517 nm (Collagen-I), 590/618 (F-Actin) and 647/683 nm (DRAQ5) using a Plan-Apochromat 20×/0.8 M27 objective.
Image acquisition and quantification were performed by Incucyte SX5 (Sartorius) using software version 2022B Rev2. A standard scan was done for 9 images per well using 20× objective, 2 optical modules (green at excitation/emission of 453-485 nm/494-533 nm in 300 msec acquisition time, and near-IR at excitation/emission of 648-674 nm/685-756 nm in 400 msec acquisition time, including Phase channel) following immunofluorescence protocol. For the image analysis, 2-6 replicates per condition were used. Using the Basic Analyzer mode, “Phase Object Confluence (%)” was acquired using the Phase channel. This measurement is the percentage of the image area occupied by cells. “Total Collagen-I Integrated Intensity Per Image (GCU×μm^2/Image)” was acquired using the green optical module. GCU stands for Green calibrated Unit, while this measurement is the total sum of the Collagen-I objects' fluorescent intensity in the image. “#Cells (Per image)” was acquired by the near-IR optical module. […]

c1ccc(-c2ccc(CNc3nc(-c4ccccn4)nnc3-c3ccccc3)cc2)cc1 [ML228, N-([1,1′-Biphenyl]-4-ylmethyl)-6-phenyl-3-(2-pyridinyl)-1,2,4-triazin-5-amine] was tested, and the IC50 (fibroblasts; fibroblasts, 48 hours, read-out: IC50 (ATP levels relative to non-treated cells)) was 679 nM, the IC50 (fibroblasts; summary statement for the treated cells (fibroblasts and osteoblasts), read-out: IC50 of cellular viability of ML228-treated cells) was roughly 600 nM and the “metabolically active cell viability as measured by ATP levels” value (fibroblasts; fibroblasts, increasing ML228 concentrations, 48 hours) was “decrease in metabolically active cell viability”. The IC50 (osteoblasts; Homo sapiens, Osteoblast, read-out: IC50 (ATP levels relative to non-treated cells)) was 567 nM, the “metabolically active cell viability as measured by ATP levels” value (osteoblasts; increasing ML228 concentrations) was “decrease in metabolically active cell viability” and the “Collagen type 1 normalized to cells confluence vs untreated cells” value (NIH/3T3 cell line; 5 μM ML228, 48 hours, p<0.05) was “reduction”. The “concentrations with significant increase of Collagen type 1 normalized to cells confluence vs untreated cells” value (NIH/3T3 cell line; 48 hours, one-way ANOVA, p<0.05 to p<0.0001) was 0.31 to 2.5 µM.
